# Test results reported in patent publication US5348970A, “Antifungal compound and compositions containing the compound” (Merck & Co., Inc., priority 1993, dated 1994).
# Legend:
# Type in all cases: cell-based
# Candida albicans = assay: Broth dilution MIC, antifungal activity; conditions: strain MY 1055, 18 hours, 29° C.
# Procedure: (§1) Minimum Inhibitory Concentrations The antifungal activity of the compound of formula 1 was determined using broth dilution assays. The compound was dissolved in DMSO at 3.7 mg/mL and serially diluted in 1% aqueous DMSO. The yeast strains including Candida species and Cryptococcal species were grown to exponential phase in a complex medium composed of 1% peptone, 0.5% yeast extract and 0.05% dextrose (CM) at 29° C. The yeast cells were diluted in CM to A600 =0.004 U/mL which was previously determined to be equal to 3000 colony forming units per milliliter. 180 uL of inoculated CM was added to the wells of a 96 well microtiter dish containing 20 μL of diluted inhibitor samples. The final concentration of the compound in the wells ranged from 37-0.01 μg/ml. The microtiter dishes were incubated for 18 hours at 29° C. and visually inspected for growth. The minimum inhibitory concentration (MIC) was recorded as the lowest concentration of compound to prevent visible growth.
# Candida krusei = assay: Broth dilution MIC, antifungal activity; conditions: Pichia kudriavzevii; strain MY 2168; 18 hours, 29° C.
# Procedure: as §1
# Candida parapsilosis = assay: Broth dilution MIC, antifungal activity; conditions: Lodderomyces parapsilosis; strain MY 1010; 18 hours, 29° C.
# Procedure: as §1
# Candida tropicalis = assay: Broth dilution MIC, antifungal activity; conditions: strain MY 2167, 18 hours, 29° C.
# Procedure: as §1
# Cryptococcus neoformans = assay: Broth dilution MIC, antifungal activity; conditions: 18 h
# Procedure: as §1
# Aspergillus fumigatus = assay: Broth dilution MIC, antifungal activity (spore inoculum); conditions: 18 h, strain MF 5668
# Procedure: as §1
# (§2) The same procedure was used to determine the MIC of the compound against the filamentous fungi, Aspergillus fumigatus MF 5668, except a spore inoculum was prepared. Spores of A. fumigatus were obtained by washing a well sporulated slant of the organism growing on potato dextrose agar with 0.05% tween 80 solution. […]
# Entercoccus faecium = assay: Broth dilution MIC, antibacterial activity; conditions: 24 h
# Procedure: (§3) The antibacterial activity of the compound was determined using broth dilution assays. The compound was dissolved in DMSO at 10 mg/mL and serially diluted in Luria Broth (LB), composed of […]. The Enterococcal strains were grown in Brain Heart Infusion broth; Staphylococcus aureus (MB2865) was grown in LB; S. aureus (MB108) and (MB2949) and Proteus vulgaris were grown in Nutrient Broth with 2% yeast extract. All bacterial strains were incubated overnight at 37° C. The bacterial cells were diluted 10^-4 in LB to give approximately 5×10^4 to 1×10^5 colony forming units per milliliter. 180 μL of inoculated LB was added to the wells of a 96 well microtiter dish containing 20 μL of diluted inhibitor samples. The final concentration of the compound in the wells ranged from 500-0.00025 μg/ml. The microtiter dishes were incubated for 24 hours at 28° C. and visually inspected for growth. The minimum inhibitory concentration (MIC) was recorded as the lowest concentration of compound to prevent visible growth.
# Proteus vulgaris = assay: Broth dilution MIC, antibacterial activity; conditions: strain MB 838, 24 hours, 28° C.
# Procedure: as §3
# Staphylococcus aureus = assay: Broth dilution MIC, antibacterial activity; conditions: 24 h
# Procedure: as §3
# fungi = assay: Antifungal activity in vitro (general statement); conditions: qualitative statement
# Procedure: as §1, §2
# bacterial strains = assay: Antibacterial activity in vitro (general statement); conditions: qualitative statement
# Procedure: as §3
compound,measurement,setting,value
CCCCCCCCCC1OC1/C=C/C(=O)C1(O)C(=O)NC(CO)C1O (stereo not drawn) [Compound 1],MIC,Candida albicans,7.4 µg/mL
same,MIC,Candida krusei,> 37 µg/mL
same,MIC,Candida parapsilosis,1.5 µg/mL
same,MIC,Candida tropicalis,7.4 µg/mL
same,MIC,"Cryptococcus neoformans; strain MY 2061, 29° C.",7.4 µg/mL
same,MIC,"Cryptococcus neoformans; strain MY 2062, 29° C.",0.02 µg/mL
same,MIC,Aspergillus fumigatus,37 µg/mL
same,MIC,"Entercoccus faecium; strain MB 5571, 28° C.",2 µg/mL
same,MIC,"Entercoccus faecium; strain MB 5572, 28° C.",1 µg/mL
same,MIC,Proteus vulgaris,> 500 µg/mL
same,MIC,"Staphylococcus aureus; strain MB 108, 28° C.",0.5 µg/mL
same,MIC,"Staphylococcus aureus; strain MB 2865, 28° C.",0.5 µg/mL
same,MIC,"Staphylococcus aureus; strain MB 2949, 28° C.",125 to 250 µg/mL
same,antifungal activity,fungi,antifungal and antibacterial activity
same,antibacterial activity,bacterial strains,antifungal and antibacterial activity
